Test results from patent publication US20150133554A1, “PURIFICATION OF DPA ENRICHED OIL” (Omega Protein Corporation, priority 2013, published 2015).
Where two headings read alike, the source gives them in different places.

Experiments:
LDLr−/− mice [1] = test: Lipid and cholesterol (TC, FC, CE) in aortas of LDLr−/− mice fed an atherogenic diet; type: in vivo; conditions: supplement 0.76% w/w of the diet
From the text: (§1) 48 male LDLr−/− mice (8-10 weeks of age, ˜20 g) were obtained from Jackson Laboratories (stock #2207) and allowed to acclimate to the cages, room, and feeding design for 12 days. After the acclimation period mice were weighed and randomly assigned to one of six treatments. Mice were fed an isolipid (20% total fatty acids w/w), isonitrogenous, and 0.2% cholesterol (w/w) diet, which is considered atherogenic (Ain76, 58TQ TestDiet®) as a base diet. This base diet was formulated to meet or exceed all nutrient and energy requirements for a growing mouse. The treatments were added to the base diet (0.76% w/w of the total diet) and was made once at the beginning of the study, separated into weekly aliquots, stored at −80° C., allowed to thaw at 4° C. for 2 days prior to feeding, and stored at 4° C. until fed. A sample from each weekly aliquot was collected, composited, and archived for fatty acid analysis at a later date. […]
(§2) Mouse body weights were recorded once weekly in conjunction with cage changes. Blood serum lipid profiles were analyzed on blood samples from the mice before (subset of 6 mice), 10 weeks, and 20 weeks relative to initiation of dietary treatments. […] Total lipid content was measured using the procedure outline by Folch, et al. (1957) J. Biol. Chem., 226:497-509, prior to cholesterol assessment. Total cholesterol, free cholesterol, and cholesterol ester were quantified as previously described (Wang, et al., 2010, Clin. Nutr., DOI: 10.1016/j.clnu.2013.04.009).
An analysis of variance model was used in R, aov in the stats package, for estimating treatment effects on cholesterol deposition in mouse aortas. Least squares means and contrasts were analyzed as outlined above. […]

LDLr−/− mice [2] = test: Serum lipid profile of LDLr−/− mice fed an atherogenic diet; type: in vivo; conditions: week 20
From the text: (§3) 48 male LDLr−/− mice (8-10 weeks of age, ˜20 g) were obtained from Jackson Laboratories (stock #2207) and allowed to acclimate to the cages, room, and feeding design for 12 days. After the acclimation period mice were weighed and randomly assigned to one of six treatments. Mice were fed an isolipid (20% total fatty acids w/w), isonitrogenous, and 0.2% cholesterol (w/w) diet, which is considered atherogenic (Ain76, 58TQ TestDiet®) as a base diet. This base diet was formulated to meet or exceed all nutrient and energy requirements for a growing mouse. The treatments were added to the base diet (0.76% w/w of the total diet) and was made once at the beginning of the study, separated into weekly aliquots, stored at −80° C., allowed to thaw at 4° C. for 2 days prior to feeding, and stored at 4° C. until fed. A sample from each weekly aliquot was collected, composited, and archived for fatty acid analysis at a later date. The treatments were as follows: (1) Negative control diet, 3.5% of the total fatty acids were replaced with milk fat (the only source of fat in the base diet), (2) 3.5% of the total fatty acids were replaced with purified ethyl esters of DHA, (3) 3.5% of the total fatty acids were replaced with purified ethyl esters of DPAn3, (4) 3.5% of the total fatty acids were replaced with purified ethyl esters of EPA, (5) 3.5% of the total fatty acids were replaced with omega-3 fatty acids from Lovaza® (GlaxoSmithKline), and (6) 3.5% of the total fatty acids were replaced with omega-3 fatty acids from ΩmegaActiv® DPA 5000 (Omega Protein Inc., Houston, Tex.; Table 1).
Mouse body weights were recorded once weekly in conjunction with cage changes. Blood serum lipid profiles were analyzed on blood samples from the mice before (subset of 6 mice), 10 weeks, and 20 weeks relative to initiation of dietary treatments. Three to five days prior to the end of the study each mouse was administered an intraperitoneal injection of 1.0 mL thioglycollate broth (4.05 g/dL) to elicit peritoneal macrophages. The peritoneal cells centrifuged then cultured in RPMI 1640 (+2 mM L-glutamine, +10 mM HEPES, +1 mM sodium pyruvate, +4500 mg/L glucose, +1500 mg/L sodium bicarbonate) on tissue culture plates (size) which allowed for adhesion of the macrophages. Plates where then vigorously washed to ensure proper macrophage isolation. Macrophages were scraped off the plates and aliquotted into a glass tube for fatty acid extraction, which was then performed via a modified Folch method. The heart and aorta were isolated from each mouse and immediately frozen in liquid nitrogen for later dissection. Aortic arches were dissected from the aortic root to the abdominal aorta using a microscope. Total lipid content was measured using the procedure outline by Folch, et al. (1957) J. Biol. Chem., 226:497-509, prior to cholesterol assessment. Total cholesterol, free cholesterol, and cholesterol ester were quantified as previously described (Wang, et al., 2010, Clin. Nutr., DOI: 10.1016/j.clnu.2013.04.009).
Average daily feed intake for the mice was cut into quartiles in order to assign a feed consumption class. A linear mixed effects model was used in R, lme in the nlme package, for estimating treatment effects on blood lipid profiles in mice. The fixed effects fit were treatment, and week of study, animal nested within treatment was fit as a random effect. Least squares means were calculated using the lsmeans package for all blood lipid profiles and a general linear hypothesis test, using glht in the multcomp package, was utilized for specified contrasts, control vs. the average of all omega-3 containing diets. Because Lovaza® is composed of high and almost equal levels of EPA and DHA we also contrasted the diet supplemented with Lovaza® to the average of the diets supplemented with EPA and DHA alone. Pairwise comparisons were made between time of blood analysis, and between treatments at each individual time frame.

LDLr−/− mice [3] = test: Serum glucose of LDLr−/− mice fed an atherogenic diet; type: in vivo; conditions: week 20
From the text: as §1, §2
Average daily feed intake for the mice was cut into quartiles in order to assign a feed consumption class. […] Least squares means were calculated using the lsmeans package for all blood lipid profiles and a general linear hypothesis test, using glht in the multcomp package, was utilized for specified contrasts, control vs. the average of all omega-3 containing diets. […]

TNF-α [4] = test: TNF-α concentration in adipose tissue of mice fed omega-3 products; type: in vivo
From the text: as §3
TNF-α concentration in adipose tissue of mice fed with different omega-3 products

IL-8 [5] = test: Fluorescence intensity (relative) of brain microvessel, IL-8; type: in vivo, mice; conditions: control = 1.00
From the text: as §3, with “1). […]” for “1).”

MCP-1 = test: Fluorescence intensity (relative) of brain microvessel, MCP-1; type: in vivo, mice; conditions: control = 1.00
From the text: as §3, with “1). […]” for “1).”

IL-8 [6] = test: Fluorescence intensity (relative) of brain hippocampus, IL-8; type: in vivo, mice; conditions: control = 1
From the text: as §3, with “1). […]” for “1).”

TIMP2 = test: Fluorescence intensity (relative) of brain hippocampus, TIMP2; type: in vivo, mice; conditions: control = 1
From the text: as §3, with “1). […]” for “1).”

TNF-α [7] = test: Fluorescence intensity (relative) of brain hippocampus, TNF-α; type: in vivo, mice; conditions: control = 1
From the text: as §3, with “1). […]” for “1).”

THP-1 cells [8] = test: Cytokine release (TNF-α, MCP-1, IL-6) by LPS-stimulated THP-1 macrophages after fatty acid incubation; type: cell-based; conditions: compared to control macrophages; for Inflammatory cytokine release (TNF-α, MCP-1, IL-6): 24 h fatty acid (50 and 100 μM), then 24 h LPS; for Cytokine release with increasing concentration of fatty acids: 50 to 100 μM
Experimental: (§4) THP-1 cells were maintained in RPMI 1640+2 mM L-Glutamine, 10 mM HEPES, 1 mM sodium pyruvate, 4500 mg/L glucose, and 1500 mg/L sodium bicarbonate; supplemented with 3.5 μL/L of 2-mercaptoethanol and 10% fetal bovine serum (FBS). Cell line was maintained in 75 cm^2 filtered cap flasks in a 37° C. incubator with 5% CO2. THP-1 cells were seeded in 24 well plates at 5×10^5 cells/mL using 600 μL/well and allowed to differentiate into macrophages (MΦ) for 72 h with phorbol 12-myristate 13-acetate (PMA) at a final concentration of 50 ng/mL.
Experiment 1: Prior to incubation with individual fatty acids, the cells were starved for 8 h in a 2% lipo-free FBS RPMI medium. Individual fatty acids were added in duplicate into the 24 well plate at two concentrations, 50 μM and 100 μM. Every assay was cultured in three runs with duplicates in each run pooled. After incubation for 24 h with fatty acids the MΦ were scraped off the plates and fatty acids were isolated as described in the ‘Animal Tests’ portion of this Example. The fatty acid profiles of the MΦ were determined as previously described (Wang, et al., 2010, Clin. Nutr., DOI: 10.1016/j.clnu.2013.04.009).
(§5) Experiment 2: Previously differentiated MΦ were incubated with fatty acids as described in ‘Experiment 1’ for 24 hours. At the 24 h time point the cells were then stimulated with lipopolysaccharide from E. coli 0111:B4 for another 24 hours. The plates were centrifuged at 1200×g for 5 minutes and supernatant was then collected and analyzed for cytokines. The MΦ were scraped off the plates and fatty acids were isolated as described in the ‘Animal Portion’. The fatty acid profiles of the MΦ were determined as previously described (Wang, et al., 2010, Clin. Nutr., DOI: 10.1016/j.clnu.2013.04.009).
A linear mixed effects model was used in R, lme in the nlme package, for estimating treatment effects on cytokine production in LPS stimulated THP-1 cells. The fixed effects fit were treatment, FA concentration, and when significant LPS concentration was fit as a covariate, the plate cells were cultured on nested within run was fit as a random effect. Least squares means were analyzed as outlined above and pairwise comparisons were made between treatments for FA concentration, or where significant LPS concentration.
The objective of this study was to determine if docosapentaenoic acid n-3 (DPAn3) enrichment of macrophages (MΦ) changed their inflammatory response relative to saturated (S), mono-unsaturated (MU), and other poly-unsaturated (PU) fatty acids (FA). Differentiated THP-1 cells were incubated with one of 11 FA (50 and 100 μM) of varying degrees of unsaturation or no FA for 24 h prior to 24 h of stimulation with lipopolysaccharide from E. coli. Fatty acids were collected from MΦ without stimulation to determine the fatty acid profiles. Media was collected from MΦ post-stimulation and probed for prostaglandin E2, and cytokines, including tumor necrosis factor-α, monocyte chemoattractant protein-1, and interleukin-6. Prostaglandin E2 production was greater (P<0.05) for AA than all other FA, and omega-3 PUFA decreased (P<0.01) PGE2 compared to n6 PUFA and all other FA.

THP-1 cells [9] = test: Prostaglandin E2 production by LPS-stimulated THP-1 macrophages after fatty acid incubation; type: cell-based; conditions: 24 h fatty acid (50 and 100 μM), then 24 h LPS; compared to other FA
Experimental: as §4, §5
The objective of this study was to determine if docosapentaenoic acid n-3 (DPAn3) enrichment of macrophages (MΦ) changed their inflammatory response relative to saturated (S), mono-unsaturated (MU), and other poly-unsaturated (PU) fatty acids (FA). […]

[10] = system: murine peritoneal macrophages; conditions: cited from earlier work

Structure (SMILES)	Aorta lipid (LDLr−/− mice [1]) [%]	Serum LDL cholesterol (LDLr−/− mice [2]) [mg/dL]	Serum total cholesterol (LDLr−/− mice [2]) [mg/dL]	Glucose concentration in serum (LDLr−/− mice [3]) [mg/dL]	TNF-α Concentration (TNF-α [4]) [pg/μg protein]	IL-8 fluorescence intensity (relative) (IL-8 [5])	MCP-1 fluorescence intensity (relative) (MCP-1)	IL-8 fluorescence intensity (relative) (IL-8 [6])	TIMP2 fluorescence intensity (relative) (TIMP2)	TNF-α fluorescence intensity (relative) (TNF-α [7])	Inflammatory cytokine release (TNF-α, MCP-1, IL-6) (THP-1 cells [8])	Prostaglandin E2 production (THP-1 cells [9])	TNF-α production ([10]; AA at 2-5 μM)	TNF-α production ([10]; AA at concentrations as low as 1 μM)	Cytokine release with increasing concentration of fatty acids (THP-1 cells [8])
CC/C=C\C/C=C\C/C=C\C/C=C\C/C=C\C/C=C\CCC(=O)O [DHA, docosahexaenoic acid]	36.38	495.51	726.86	172.58	0.82	0.86	0.93	0.46	0.23	0.29					
CC/C=C\C/C=C\C/C=C\C/C=C\C/C=C\CCCC(=O)O [EPA, eicosapentaenoic acid]	29.93	562.07	663.37	198.65	0.58	0.93	0.96	0.72	0.63	0.31					
CCCCC/C=C\C/C=C\C/C=C\C/C=C\CCCC(=O)O [AA, arachidonic acid]											decreased	greater	completely inhibited	decreased	
CCCCCCCCCCCCCCCC(=O)O [C16:0]											did not change				did not change, or increased
CCCCCCCC/C=C\CCCCCCCC(=O)O [oleic acid]											did not change				did not change, or increased
CC/C=C\C/C=C\C/C=C\C/C=C\C/C=C\CCCCCC(=O)O [DPA, docosapentaenoic acid]	29.52	563.45	692.98	166.23	0.41	0.96	0.92	0.70	0.17	0.28					
CCCCCCCCCCCCCCCCCC(=O)O [C18:0]											did not change				did not change, or increased
